Columns and labels:
[1] = test system: MDA-MB-157 cells; experiment: pH3 and PCM spot EC50 determination; settings: pH3 and PCM spot EC50 values
[2] = test system: OVCAR-3 tumors; experiment: OVCAR-3 Tumor Xenograft Efficacy Study (IP); settings: 25 mg/kg IP once daily for 18 consecutive days
Protocol: Mice were injected with human OVCAR-3 cells (5.0×10^6) subcutaneously in the right flank. Animals with established tumors were randomized into four groups (n=10 per group) with average tumor volume of 130 mm^3. […] Treatment started on day 24 post-tumor implantation and treatment terminal on day 42. Tumor volumes and body weights were recorded twice per week using a digital caliper and analytical lab scale, respectively. […] The percentage of tumor growth inhibition (% TGI) was calculated as % TGI relative to vehicle control: % TGI=100−[(Treated−Initial Volume)/(Control−Initial Volume)×100]. The percentage of tumor regression (% TR) was calculated as % TR compared final tumor volume to the initial tumor volume: % TR=100−[(Final Volume)/(Initial Volume)×100]. Data was graphed using GraphPad Prism 7.05. Statistical analysis was performed on treatment groups for tumor growth and blood counts using repeated measures ANOVA and one-way ANOVA, respectively, followed by Dunnett's multiple comparisons test.

[3] = target: T1, human KIF18A (residues 1-467) (Homo sapiens, UniProt Q8NI77); experiment: KIF18A MT-ATPase motor activity, ADP-Glo luminescence assay (Example 19); type: biochemical
T1 construct: human KIF18A (residues 1-467, 4 nM); made in house
Protocol: (§1) A trio of KIF18A inhibitors (Compound C9, Compound C11, and Compound C12) were synthesized and tested in vitro for KIF18A inhibitory activity. […] The values represent mean t SEM from three independent experiments. […] As in vivo studies in mice were planned, the mouse KIF18A inhibitory effects of Compound C9 and C12 were assayed.
(§2) KIF18A compounds C9, C11, C12 were 2-fold serially diluted over a 22-point concentration range in DMSO using 384-well plate (Corning). Recombinant truncated kinesin motor proteins (human KIF18A (residues 1-467, 4 nM), mouse KIF18A (residues 1-467, 4 nM)) were expressed and purified. ADP-Glo luminescence assay (Promega) was used to measure the MT-ATPase motor activity. Porcine brain MTs were procured from Cytoskeleton Inc. Compounds were pre-incubated for <30 min in reaction buffer (15 mM Tris, pH 7.5, 10 mM MgCl2, 0.01% Pluronic F-68, 2% DMSO, 1 μM paclitaxel, 30 μg/mL MTs) with motor proteins at concentrations indicated above, 30 μM ATP was added to initiate the enzymatic reaction for 15 min at room temperature (RT). ADP-Glo reagents were added according to manufactures protocol, the luminescence intensity proportional to ADP present was measured using an EnVision plate reader (Perkin Elmer). Raw luminescence signal data was normalized to POC (percentage of positive control) and then Activity (%) was computed [POC=100×(sample signal−negative control signal)+(positive control signal−negative control signal). Activity (%)=POC−100]. The positive control (enzyme+substrate) and negative control (substrate alone) had equivalent concentrations of DMSO. Curve-fitting and IC50 values were determined by 4-parameter non-linear regression equation (variable slope) using GraphPad Prism 7.05 (GraphPad Software).

[4] = target: T2, mouse KIF18A (residues 1-467) (Mus musculus, UniProt Q91WD7); experiment: as above; type: biochemical
T2 construct: mouse KIF18A (residues 1-467, 4 nM); made in house
Protocol: as §1, §2

[5] = Tolerability (body weight, blood counts) in tumor-bearing nude mice; type: in vivo, mouse; settings: 18 days
Protocol: Female athymic nude mice were injected with 5×10^6 cells in 0.1 mL subcutaneously in the right flank. After tumors were established (average tumor volume of 150 mm^3), animals were randomized into 4 treatment groups (vehicle alone, KIF18A inhibitor at 10, 30, or 100 mg/kg) with 10 animals per group and treated orally once per day (PO, QD) starting on day 25 post-tumor implantation. Tumor measurement was calculated from the length, width and height of tumors measured with a PRO-MAX electronic digital caliper (Japan Micrometer Mfg. Co. LTD). The tumor volume was calculated as [L×W×H] and expressed in mm^3. Tumor volume and animal body weight measurements were determined twice per week (study start day 25, study end day 45). A single mouse was removed from the study (KIF18A inhibitor 30 mg/kg group) due to abdominal distention, a finding likely unrelated to compound.
Data was plotted using GraphPad Prism software (V7.0.4), tumor volume and body weight data are expressed as means plus or minus standard error of the mean and plotted as a function of time. Statistical significance of observed differences between growth curves were calculated using SLACR package (v.1.0.3). Statistical significance for tumor regressions were performed by paired Student's t-Test on the initial and final tumor volumes with significant tumor regression p-values (***p≤0.0001) for all three KIF18A inhibitor treatment groups. KIF18A inhibitor dose 10 mg/kg (81% regression, 5 of 10 tumor-free), 30 mg/kg (98% regression, 8 of 9 tumor-free), and 100 mg/kg (97% regression, 7 of 10 tumor-free).
Female athymic nude mice were injected with 5×10^6 OVCAR-8 cells in 0.1 mL subcutaneously in the right flank. […] Tumor volume and animal body weight measurements were determined twice per week (study start day 25, study end day 47). Tumor measurements, formulas, and regression analysis as described above for FIGS. 5A-5B. Data was plotted using GraphPad Prism software (V7.0.4), tumor volume and body weight data are expressed as means plus or minus standard error of the mean and plotted as a function of time. Statistical significance of observed differences between growth curves were calculated using SLACR package (v.1.0.3).
(§3) Data was graphed using GraphPad Prism 7.05.
(§4) Tumor volume and body weight assessment performed as described above. After the final dose on day 36, plasma pharmacokinetic analysis was performed as described above. All data analysis was performed as described above.
(§5) Animals were dosed IP daily with vehicle alone, C9 (50 or 100 mg/kg), or C12 (25 or 50 mg/kg). […] Tumor volume and body weight assessment performed as described above. After the final dose on day 46, plasma pharmacokinetic analysis was performed as described above except blood was drawn by retro-orbital bleed method.

[6] = test system: OVCAR-8 tumors; experiment: OVCAR-8 Tumor Xenograft Efficacy Study (IP); type: in vivo, mouse
Protocol: as §5

[7] = Terminal plasma pharmacokinetic analysis in tumor-bearing mice; type: in vivo, mouse
Protocol: as §3, §4, §5

[8] = test system: human mammary epithelial cells (HMEC); experiment: BrdU incorporation assay in normal cells; type: cell-based; settings: 48 hours
Protocol: (§6) The effect KIF18A inhibitor treatment has on proliferation of normal somatic cells (e.g., not neoplastic cells) was tested by assaying proliferation of human bone marrow mononuclear cells (HBMNCs), primary human foreskin fibroblast cells (hFSF) and human mammary epithelial cells via a 5-bromo-2′-deoxyuridine (BrdU) incorporation assay in which BrdU, an analog of the nucleoside thymidine, is used to identify proliferating cells (Payton et. al., Molecular Cancer Therapeutics, 17(12):2575-85 (2018)). Cells were analyzed on BD LSRFortessa flow cytometer using BD FACSDiva software (BD Biosciences), and post-acquisition data analysis was performed using FSC-Express software (De Novo). The percentage of BrdU positive gated events on the stacked DNA content histograms were reported.

[9] = test system: human foreskin fibroblast (hFSF) cells; experiment: BrdU incorporation assay in normal cells; type: cell-based; settings: 48 hours
Protocol: as §6

[10] = test system: human bone marrow mononuclear cells (HBMNC); experiment: BrdU cell cycle analysis and live cell count in normal cells; type: cell-based
Protocol: as §6
To further examine the effects of KIF18A inhibitor treatment on HBMNC, two normal donors were assessed using the BrdU coupled cell cycle assay and cell count assay (96 hours) was. […] In particular, the amount of BrdU-stained proliferating cells treated with Ispinesib, paclitaxel, or a CDK 4/6 inhibitor (palbociclib) was far less than the amount of vehicle control-treated BrdU-stained cells. […] KIF18A inhibitor treatment was also analyzed for impact on live cell count. After 96 hours, live cells were counted by Vi-CELL XR Cell Viability Analyzer (Beckman Coulter).
To investigate whether KIF18A inhibitors could circumvent this normal cell toxicity barrier, we examined the effects of Compounds C9 and C11 on a panel of cycling normal somatic cell types. First, we treated human bone marrow mononuclear cells (HBMNC) from two normal donors with DMSO, Compound C9 and C11 at 1 μM, ispinesib at 0.05 μM, paclitaxel at 0.05 μM, or palbociclib at 1 μM for 48 h (cell cycle) or 96 h (cell growth).
BrdU and cell cycle analysis. Human bone marrow mononuclear cells (HBMNCs) from two normal donors (#37612, #37534) were cultured for 8 days in defined media as previously described (Payton et al 2018). HBMNCs were seeded in 24-well plate at 1.2×10^6 cells per well in duplicate plates. Cells were treated with DMSO, Compound C9 (1 μM), Compound C11 (1 μM), ispinesib (0.05 μM), paclitaxel ([…]), or palbociclib (1 μM). Cells were collected at 48 h (cell cycle) and 96 h (cell growth). The first set of plates were pulsed with BrdU for 2 h and processing for BrdU cell cycle analysis as previously described (Payton et al 2018). Cells were analyzed on BD LSRFortessa flow cytometer running BD FACSDiva software and post-acquisition data analysis was performed using FSC-Express software. Data was reported for the percentage of BrdU and subG1 gated populations. The second set of plates were collected, and cells counted using Vi-CELL XR Cell Viability Analyzer (Beckman Coulter).

[11] = test system: human bone marrow mononuclear cells (HBMNC); experiment: as above; type: cell-based; settings: 96 h; ispinesib 0.05 μM, paclitaxel 0.05 μM, palbociclib 1 μM
[12] = OVCAR-3 study, C9 100 mg/kg, C12 25 mg/kg IP daily

T2 sequence (Q91WD7 1-467): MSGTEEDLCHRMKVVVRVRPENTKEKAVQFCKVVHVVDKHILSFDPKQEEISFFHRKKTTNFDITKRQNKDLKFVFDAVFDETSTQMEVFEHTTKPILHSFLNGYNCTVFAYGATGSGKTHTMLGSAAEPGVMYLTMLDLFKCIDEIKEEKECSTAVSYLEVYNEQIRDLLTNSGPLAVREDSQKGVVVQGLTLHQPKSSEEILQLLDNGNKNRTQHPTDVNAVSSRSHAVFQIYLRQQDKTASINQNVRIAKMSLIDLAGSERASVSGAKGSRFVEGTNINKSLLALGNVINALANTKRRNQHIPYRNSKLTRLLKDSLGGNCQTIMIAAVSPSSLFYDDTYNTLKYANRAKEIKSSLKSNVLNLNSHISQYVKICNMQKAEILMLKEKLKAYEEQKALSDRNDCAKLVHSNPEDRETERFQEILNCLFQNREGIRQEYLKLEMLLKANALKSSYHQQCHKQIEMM
T2 sequence (P02550 whole entry partner, the tested form may be a part): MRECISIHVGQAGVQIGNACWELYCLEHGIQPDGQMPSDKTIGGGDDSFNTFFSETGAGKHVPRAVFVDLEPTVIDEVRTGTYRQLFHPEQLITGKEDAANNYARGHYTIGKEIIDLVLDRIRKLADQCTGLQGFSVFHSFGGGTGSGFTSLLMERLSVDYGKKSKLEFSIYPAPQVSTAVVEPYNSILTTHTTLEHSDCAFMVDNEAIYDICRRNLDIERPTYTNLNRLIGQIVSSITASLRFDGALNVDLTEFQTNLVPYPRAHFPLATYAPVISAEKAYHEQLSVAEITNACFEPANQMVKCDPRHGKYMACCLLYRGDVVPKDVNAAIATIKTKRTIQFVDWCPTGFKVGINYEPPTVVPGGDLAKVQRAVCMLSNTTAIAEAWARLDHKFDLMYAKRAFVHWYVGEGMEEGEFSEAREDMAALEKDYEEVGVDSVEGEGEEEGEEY
T2 sequence (P02554 whole entry partner, the tested form may be a part): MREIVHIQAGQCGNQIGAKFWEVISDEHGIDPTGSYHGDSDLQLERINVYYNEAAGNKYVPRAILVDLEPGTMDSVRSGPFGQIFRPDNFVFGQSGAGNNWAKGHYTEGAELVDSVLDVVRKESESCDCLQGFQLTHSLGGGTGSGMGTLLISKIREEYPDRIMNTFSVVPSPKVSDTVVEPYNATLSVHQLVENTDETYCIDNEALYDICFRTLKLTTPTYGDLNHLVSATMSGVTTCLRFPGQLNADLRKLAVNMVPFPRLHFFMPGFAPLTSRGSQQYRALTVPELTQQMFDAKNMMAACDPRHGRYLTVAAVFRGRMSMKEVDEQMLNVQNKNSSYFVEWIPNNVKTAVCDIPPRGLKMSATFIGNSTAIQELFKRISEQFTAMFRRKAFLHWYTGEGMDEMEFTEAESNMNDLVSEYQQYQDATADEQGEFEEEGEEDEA
T1 sequence (Q8NI77 1-467): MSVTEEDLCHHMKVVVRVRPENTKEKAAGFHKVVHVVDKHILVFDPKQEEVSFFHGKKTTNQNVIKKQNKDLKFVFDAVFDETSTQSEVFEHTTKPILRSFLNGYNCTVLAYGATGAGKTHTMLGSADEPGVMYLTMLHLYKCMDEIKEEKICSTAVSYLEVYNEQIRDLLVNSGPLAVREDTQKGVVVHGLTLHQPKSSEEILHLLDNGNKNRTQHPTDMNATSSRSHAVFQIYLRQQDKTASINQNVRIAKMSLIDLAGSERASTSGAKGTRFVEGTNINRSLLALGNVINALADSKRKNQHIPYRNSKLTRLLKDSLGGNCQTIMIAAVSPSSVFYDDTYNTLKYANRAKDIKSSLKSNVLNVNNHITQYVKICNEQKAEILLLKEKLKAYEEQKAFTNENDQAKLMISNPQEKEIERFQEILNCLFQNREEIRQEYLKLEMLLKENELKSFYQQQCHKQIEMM
T1 sequence (P02550 whole entry partner, the tested form may be a part): as the sequence (P02550 whole entry partner, the tested form may be a part) above
T1 sequence (P02554 whole entry partner, the tested form may be a part): as the sequence (P02554 whole entry partner, the tested form may be a part) above

SMILES	improvement of cell potency relative to a control compound [1] [fold]	tumor regression [2] [%]	IC50 [3] [nM]	IC50 [4] [nM]	tolerability (body weight) ([5]; CAL-51 study, C9 100 mg/kg, C12 25 mg/kg IP daily)	monocyte count ([5]; OVCAR-3 study, 25 mg/kg IP daily, p=0.043)	body weight loss or changes in blood counts [5, 12]	tolerability [5, 12]	tolerability (body weight) ([5]; OVCAR-8 study, C9 50 or 100 mg/kg, C12 25 or 50 mg/kg IP daily)	tumor regression ([6]; 25 mg/kg IP once daily for 18 consecutive days) [%]	tumor regression ([6]; 50 mg/kg IP once daily for 18 consecutive days) [%]	plasma AUC in OVCAR-8 study relative to the other efficacy studies ([7]; at matched doses) [fold]	AUC ([7]; nude, mouse, plasma, OVCAR-3 study, 25 mg/kg IP, after the final dose) [µM·h]	BrdU incorporation relative to DMSO treated cells [8]	BrdU incorporation relative to DMSO treated cells [9]	cell cycle DNA content profiles ([10]; 48 h, C9, C11, palbociclib 1 μM, ispinesib 0.05 μM, paclitaxel)	BrdU incorporation (cell cycle analysis) relative to DMSO/vehicle control ([10]; two normal donors, 48 h, C9, C11, palbociclib 1 μM, ispinesib 0.05 μM, paclitaxel)	BrdU incorporation (cell cycle analysis) relative to DMSO/vehicle control ([10]; two normal donors, 48 h, C9, C11, palbociclib 1 μM, ispinesib 0.05 μM, paclitaxel, listed as ispinesib)	live cell count relative to vehicle control ([10]; two normal donors, 96 hours)	reduction in cell growth [11] [%]
C[C@@H]1CN(c2cccc(NC(=O)c3ccc(NS(=O)(=O)CCO)cc3N3CCC4(CC3)CC4)n2)CCO1 [Compound C12, (R)-4-((2-Hydroxyethyl)sulfonamido)-N-(6-(2-methylmorpholino)pyridin-2-yl)-2-(6-azaspiro[2.5]octan-6-yl)benzamide]	> 120	46	40	39	well-tolerated	decrease on monocytes	no evidence of body weight loss or changes in blood counts	well-tolerated	well-tolerated	19	75	2.8	53							
Cc1ccc(C(=O)N(CCCN)[C@@H](c2nc3cc(Cl)ccc3c(=O)n2Cc2ccccc2)C(C)C)cc1 [Ispinesib, reference compound]														decrease in BrdU incorporation	decrease in BrdU incorporation	marked effects on cell cycle DNA content profiles	far less	clearly cytotoxic	lower cell count	~88

Reference: US20230151432A1, “KIF18A INHIBITORS FOR TREATMENT OF NEOPLASTIC DISEASES” (AMGEN INC., priority 2020, published 2023)
